Experimental data as given in ChEMBL document CHEMBL1201862, “PubChem BioAssay data set” (2004).
Calls of active or inactive are those of the source.

Legend:
[1] = target: Ion channel NompC (Danio rerio, UniProt Q7T1G6); assay: Dose response cell-based high-throughput screening assay for agonists of the transient receptor potential channel N1 (TRPN1). [Related pubchem assays (depositor defined):AID1424, AID1448]; assay type: functional
[2] = inhibitors of intracellular T. cruzi replication, confirmation, NIH3T3 host cells, beta-gal luminescence (AID 2044); assay type: functional, cell-based;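 also: intracellular parasites grown in NIH/3T3 mouse fibroblasts as host cells; luminescent beta-galactosidase reporter signal from transgenic T. cruzi replicating inside host cells; inhibitors lower the luminescence signal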
[3] = target: Mucolipin-3 (Homo sapiens, UniProt Q8TDD5); assay: Fluorescence counterscreen assay for […] agonists: dose response cell-based high-throughput screening assay to identify agonists of the transient receptor potential channel ML3 (TRPML3). [Related pubchem assays: 1424, 1448 ]; assay type: functional
[4] = cytotoxicity toward NIH3T3 fibroblasts, dose response, counter-screen, cell-based, ATP luminescence, mouse fibroblasts (AID 2010); assay type: functional;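 also: cells exposed to compound for about 90 hours before reading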
[5] = Luminescence Cell-Based Dose Retest to Confirm Inhibitors of Cancer Stem Cells. [Related pubchem assays (depositor defined):AID2717, AID2721]; assay type: functional; settings: Homo sapiens
[6] = tested on: INS1; assay: beta cell apoptosis inhibitors, cytokine rescue, dose response, luminescence, retest (AID 449756); assay type: functional, cell-based; settings: Rattus norvegicus;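 also: cell death triggered by IL-1 beta plus TNF-alpha plus IFN-gamma mixture; protective hits raise ATP signal compared with cytokine alone wells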
[7] = target: Cytochrome P450 2D6 (Homo sapiens, UniProt P10635);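 also: CYP2D6 member of a cytochrome P450 panel assay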
Sequence of Cytochrome P450 2D6 (P10635 whole entry): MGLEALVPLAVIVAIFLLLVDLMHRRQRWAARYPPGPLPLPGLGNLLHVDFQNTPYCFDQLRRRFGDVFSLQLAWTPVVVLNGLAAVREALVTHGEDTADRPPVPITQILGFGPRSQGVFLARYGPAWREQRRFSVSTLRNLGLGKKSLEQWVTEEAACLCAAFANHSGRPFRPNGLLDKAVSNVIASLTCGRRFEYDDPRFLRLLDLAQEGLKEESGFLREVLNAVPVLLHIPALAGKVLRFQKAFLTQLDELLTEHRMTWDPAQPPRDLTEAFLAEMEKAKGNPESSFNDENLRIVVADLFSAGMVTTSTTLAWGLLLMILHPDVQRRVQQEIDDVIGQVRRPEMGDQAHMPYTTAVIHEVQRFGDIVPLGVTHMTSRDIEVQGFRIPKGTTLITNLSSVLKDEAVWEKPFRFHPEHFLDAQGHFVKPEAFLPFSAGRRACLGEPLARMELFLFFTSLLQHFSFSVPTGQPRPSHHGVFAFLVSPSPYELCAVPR

[8] = target: Cytochrome P450 3A4 (Homo sapiens, UniProt P08684);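 also: CYP3A4 tested as one member of a cytochrome P450 panel screen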
[9] = target: T1, Runt-related transcription factor 1/Core-binding factor subunit beta (Homo sapiens, UniProt Q01196+Q13951); assay: Confirmation of compounds inhibiting the binding between the RUNX1 Runt domain and CBFb-SMMHC via a fluorescence resonance energy transfer (FRET) assay. [Related pubchem assays (depositor defined):AID1434, AID1438, AID1496, AID1550, AID1645]; assay type: protein assay
T1 sequence (Q01196 whole entry, the tested form may be a part): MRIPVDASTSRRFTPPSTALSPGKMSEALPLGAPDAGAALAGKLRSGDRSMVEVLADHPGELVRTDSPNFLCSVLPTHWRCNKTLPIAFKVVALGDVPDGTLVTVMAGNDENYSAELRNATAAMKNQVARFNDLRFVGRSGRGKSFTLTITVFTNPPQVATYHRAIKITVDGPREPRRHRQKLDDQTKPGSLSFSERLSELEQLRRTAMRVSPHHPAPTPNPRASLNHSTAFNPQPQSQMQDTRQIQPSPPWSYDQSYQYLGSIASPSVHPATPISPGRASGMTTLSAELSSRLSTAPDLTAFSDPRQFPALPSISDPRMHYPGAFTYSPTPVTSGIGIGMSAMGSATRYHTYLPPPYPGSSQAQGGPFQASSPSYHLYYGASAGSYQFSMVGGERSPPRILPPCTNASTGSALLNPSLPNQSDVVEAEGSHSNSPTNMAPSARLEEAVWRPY
T1 sequence (Q13951 whole entry, the tested form may be a part): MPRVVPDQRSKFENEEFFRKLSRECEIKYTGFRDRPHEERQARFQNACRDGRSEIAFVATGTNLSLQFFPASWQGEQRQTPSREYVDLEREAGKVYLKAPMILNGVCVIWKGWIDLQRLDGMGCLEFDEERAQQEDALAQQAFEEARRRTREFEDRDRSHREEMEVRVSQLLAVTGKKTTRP

[10] = target: T1, Runt-related transcription factor 1/Core-binding factor subunit beta; assay: Confirmation of compounds inhibiting the binding between the RUNX1 Runt domain and CBFb-SMMHC via a time resolved fluorescence resonance energy transfer (TR-FRET) assay. [Related pubchem assays (depositor defined):AID1434, AID1438, AID1496, AID1560, AID1645]; assay type: protein assay
[11] = target: Nuclear receptor ROR-gamma (Homo sapiens, UniProt P51449); assay: ROR modulator nuclear receptor reporter panel, late-stage follow-up, ROR modulator project, cell-based, luciferase reporter, panel member RORG (AID 2117)
Sequence of Nuclear receptor ROR-gamma (P51449 whole entry): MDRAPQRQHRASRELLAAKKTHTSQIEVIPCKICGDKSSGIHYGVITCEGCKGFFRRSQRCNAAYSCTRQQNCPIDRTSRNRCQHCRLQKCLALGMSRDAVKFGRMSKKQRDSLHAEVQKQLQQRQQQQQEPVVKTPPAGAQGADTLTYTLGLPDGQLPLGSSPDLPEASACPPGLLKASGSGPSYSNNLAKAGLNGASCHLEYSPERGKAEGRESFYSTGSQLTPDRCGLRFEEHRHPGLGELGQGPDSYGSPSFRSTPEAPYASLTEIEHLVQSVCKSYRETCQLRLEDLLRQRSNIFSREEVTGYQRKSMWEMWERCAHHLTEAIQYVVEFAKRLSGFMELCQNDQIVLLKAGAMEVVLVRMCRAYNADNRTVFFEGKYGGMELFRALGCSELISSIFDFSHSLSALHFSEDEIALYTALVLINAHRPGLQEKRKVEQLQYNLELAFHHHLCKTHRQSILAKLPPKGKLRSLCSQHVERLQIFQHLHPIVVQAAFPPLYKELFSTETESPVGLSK

[12] = target: Nuclear receptor ROR-alpha (Homo sapiens, UniProt P35398); assay: ROR modulator nuclear receptor reporter panel, late-stage follow-up, ROR modulator project, cell-based, luciferase reporter, panel member RORA (AID 2117)
Sequence of Nuclear receptor ROR-alpha (P35398 whole entry): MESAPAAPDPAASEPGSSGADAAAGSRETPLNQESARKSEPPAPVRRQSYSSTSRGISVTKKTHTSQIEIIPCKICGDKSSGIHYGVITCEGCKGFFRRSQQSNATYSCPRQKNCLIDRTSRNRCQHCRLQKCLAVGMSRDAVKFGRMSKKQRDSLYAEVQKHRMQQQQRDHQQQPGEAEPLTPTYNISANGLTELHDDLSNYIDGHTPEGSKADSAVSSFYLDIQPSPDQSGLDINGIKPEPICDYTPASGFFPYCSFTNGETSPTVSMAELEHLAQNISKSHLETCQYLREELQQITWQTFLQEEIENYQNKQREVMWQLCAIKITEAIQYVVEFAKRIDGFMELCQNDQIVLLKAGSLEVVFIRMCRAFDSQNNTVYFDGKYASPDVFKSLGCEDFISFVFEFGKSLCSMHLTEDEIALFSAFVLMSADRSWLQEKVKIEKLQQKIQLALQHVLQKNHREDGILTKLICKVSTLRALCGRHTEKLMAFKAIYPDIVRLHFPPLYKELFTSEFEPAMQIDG

[13] = target: T2, Mannose-6-phosphate isomerase (Homo sapiens, UniProt P34949); assay: PMI enzyme inhibitors, confirmation, biochemical, fluorescence intensity (AID 1535)
T2 sequence (P34949 whole entry): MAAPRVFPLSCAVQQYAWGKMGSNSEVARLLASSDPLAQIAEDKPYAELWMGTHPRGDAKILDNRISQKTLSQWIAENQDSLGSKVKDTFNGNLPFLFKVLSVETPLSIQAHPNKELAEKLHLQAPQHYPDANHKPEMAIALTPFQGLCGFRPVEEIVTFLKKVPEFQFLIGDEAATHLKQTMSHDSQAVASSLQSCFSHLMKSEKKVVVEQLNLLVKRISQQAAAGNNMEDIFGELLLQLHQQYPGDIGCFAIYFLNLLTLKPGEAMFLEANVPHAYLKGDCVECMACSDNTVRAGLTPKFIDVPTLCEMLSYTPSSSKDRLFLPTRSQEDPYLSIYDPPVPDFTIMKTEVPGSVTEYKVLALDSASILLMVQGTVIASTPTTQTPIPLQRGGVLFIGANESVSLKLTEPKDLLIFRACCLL

[14] = target: Phosphomannomutase 2 (Homo sapiens, UniProt O15305); assay: Counter screen SAR assay for PMM2 inhibitors via a fluorescence intensity assay. [Related pubchem assays (depositor defined):AID1545, AID1574]
Sequence of Phosphomannomutase 2 (O15305 whole entry, the tested form may be a part): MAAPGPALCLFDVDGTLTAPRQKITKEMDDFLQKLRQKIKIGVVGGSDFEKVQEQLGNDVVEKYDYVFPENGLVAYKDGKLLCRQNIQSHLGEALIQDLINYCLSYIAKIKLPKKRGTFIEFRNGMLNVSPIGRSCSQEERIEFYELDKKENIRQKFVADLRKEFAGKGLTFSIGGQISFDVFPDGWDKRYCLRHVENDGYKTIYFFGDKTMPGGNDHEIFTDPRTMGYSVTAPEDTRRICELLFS

[15] = target: T1, Runt-related transcription factor 1/Core-binding factor subunit beta; assay: inhibitors of RUNX1 Runt–CBFb-SMMHC binding, primary screen, biochemical, FRET, Cerulean-Runt, Venus-CBFb-SMMHC, uHTS (AID 1434); assay type: protein assay;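 also: partner is the CBFb-SMMHC leukemia fusion protein rather than wild-type CBFb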
[16] = tested on: Streptococcus sp. 'group A'; assay: growth inhibition of control SK(-) GAS strain, dose response, counter-screen for streptokinase expression inhibitor project, luminescence, kanamycin, BacTiterGlo, confirmation (AID 1900); assay type: functional, organism-based
[17] = target: T1, Runt-related transcription factor 1/Core-binding factor subunit beta; assay: inhibitors of RUNX1 Runt–CBFb-SMMHC binding, biochemical, TR-FRET (AID 1438); assay type: protein assay
[18] = tested on: Streptococcus; assay: Group A Streptococcus viability loss, dose response, counter-screen for streptokinase expression inhibitor project, luminescence, BacTiterGlo (AID 1915); assay type: functional, organism-based;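 also: potency for reduction of bacterial viability or growth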
[19] = target: Large T antigen (Simian virus 40, UniProt P03070); assay type: functional, Betapolyomavirus macacae;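 also: Confirmatory-stage PubChem screen for compounds that inhibit SV40 T antigen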
[20] = target: Intestinal-type alkaline phosphatase (Homo sapiens, UniProt P09923); assay: activation of human intestinal alkaline phosphatase – biochemical, dose response (AID 488873); assay type: functional
[21] = target: Intestinal-type alkaline phosphatase (Mus musculus, UniProt P24822); assay: mouse intestinal alkaline phosphatase activators, dose response, biochemical, luminescence, uHTS hits (AID 488783); assay type: functional
Sequence of Intestinal-type alkaline phosphatase (Mus musculus, UniProt P24822) (P24822 whole entry): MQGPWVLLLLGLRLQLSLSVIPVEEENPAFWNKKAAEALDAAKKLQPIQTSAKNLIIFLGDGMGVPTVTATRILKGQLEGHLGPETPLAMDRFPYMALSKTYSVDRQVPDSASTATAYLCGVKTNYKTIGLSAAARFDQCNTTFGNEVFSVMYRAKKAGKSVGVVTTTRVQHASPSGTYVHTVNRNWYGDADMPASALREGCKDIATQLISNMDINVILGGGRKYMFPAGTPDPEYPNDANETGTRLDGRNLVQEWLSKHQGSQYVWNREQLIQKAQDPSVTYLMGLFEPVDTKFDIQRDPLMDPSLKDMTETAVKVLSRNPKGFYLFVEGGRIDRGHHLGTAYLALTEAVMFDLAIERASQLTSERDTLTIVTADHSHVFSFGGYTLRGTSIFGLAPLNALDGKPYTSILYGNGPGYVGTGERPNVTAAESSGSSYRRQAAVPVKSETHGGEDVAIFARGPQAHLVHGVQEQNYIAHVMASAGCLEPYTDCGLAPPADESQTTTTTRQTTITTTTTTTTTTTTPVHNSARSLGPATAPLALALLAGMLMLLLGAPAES

[22] = target: T3, Alkaline phosphatase, tissue-nonspecific isozyme (Homo sapiens, UniProt P05186); assay: TNAP enzyme activators, dose response, selectivity assay for mouse IAP activator project, biochemical, TNAP isozyme, mouse IAP uHTS hits (AID 488880); assay type: functional
T3 sequence (P05186 whole entry): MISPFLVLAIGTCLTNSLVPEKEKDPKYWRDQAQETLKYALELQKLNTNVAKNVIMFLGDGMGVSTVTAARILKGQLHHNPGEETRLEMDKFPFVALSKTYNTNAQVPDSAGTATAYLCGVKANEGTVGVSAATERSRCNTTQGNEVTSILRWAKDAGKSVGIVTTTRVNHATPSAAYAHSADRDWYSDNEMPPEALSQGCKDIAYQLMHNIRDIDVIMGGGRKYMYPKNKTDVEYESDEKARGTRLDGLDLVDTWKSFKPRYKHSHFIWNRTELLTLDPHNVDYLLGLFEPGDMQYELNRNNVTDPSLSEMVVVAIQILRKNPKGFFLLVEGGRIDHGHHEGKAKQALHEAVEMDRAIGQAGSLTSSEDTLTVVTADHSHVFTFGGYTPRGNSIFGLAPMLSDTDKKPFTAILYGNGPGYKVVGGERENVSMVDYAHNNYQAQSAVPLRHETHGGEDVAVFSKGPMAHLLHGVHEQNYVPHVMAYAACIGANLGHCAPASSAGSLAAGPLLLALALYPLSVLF

[23] = tested on: Vero; assay: Vero cell cytotoxicity, cytotoxicity control for flavivirus capping enzyme inhibitors (AID 588742); assay type: functional; settings: Chlorocebus sabaeus

Sequence of Ion channel NompC (Q7T1G6 whole entry): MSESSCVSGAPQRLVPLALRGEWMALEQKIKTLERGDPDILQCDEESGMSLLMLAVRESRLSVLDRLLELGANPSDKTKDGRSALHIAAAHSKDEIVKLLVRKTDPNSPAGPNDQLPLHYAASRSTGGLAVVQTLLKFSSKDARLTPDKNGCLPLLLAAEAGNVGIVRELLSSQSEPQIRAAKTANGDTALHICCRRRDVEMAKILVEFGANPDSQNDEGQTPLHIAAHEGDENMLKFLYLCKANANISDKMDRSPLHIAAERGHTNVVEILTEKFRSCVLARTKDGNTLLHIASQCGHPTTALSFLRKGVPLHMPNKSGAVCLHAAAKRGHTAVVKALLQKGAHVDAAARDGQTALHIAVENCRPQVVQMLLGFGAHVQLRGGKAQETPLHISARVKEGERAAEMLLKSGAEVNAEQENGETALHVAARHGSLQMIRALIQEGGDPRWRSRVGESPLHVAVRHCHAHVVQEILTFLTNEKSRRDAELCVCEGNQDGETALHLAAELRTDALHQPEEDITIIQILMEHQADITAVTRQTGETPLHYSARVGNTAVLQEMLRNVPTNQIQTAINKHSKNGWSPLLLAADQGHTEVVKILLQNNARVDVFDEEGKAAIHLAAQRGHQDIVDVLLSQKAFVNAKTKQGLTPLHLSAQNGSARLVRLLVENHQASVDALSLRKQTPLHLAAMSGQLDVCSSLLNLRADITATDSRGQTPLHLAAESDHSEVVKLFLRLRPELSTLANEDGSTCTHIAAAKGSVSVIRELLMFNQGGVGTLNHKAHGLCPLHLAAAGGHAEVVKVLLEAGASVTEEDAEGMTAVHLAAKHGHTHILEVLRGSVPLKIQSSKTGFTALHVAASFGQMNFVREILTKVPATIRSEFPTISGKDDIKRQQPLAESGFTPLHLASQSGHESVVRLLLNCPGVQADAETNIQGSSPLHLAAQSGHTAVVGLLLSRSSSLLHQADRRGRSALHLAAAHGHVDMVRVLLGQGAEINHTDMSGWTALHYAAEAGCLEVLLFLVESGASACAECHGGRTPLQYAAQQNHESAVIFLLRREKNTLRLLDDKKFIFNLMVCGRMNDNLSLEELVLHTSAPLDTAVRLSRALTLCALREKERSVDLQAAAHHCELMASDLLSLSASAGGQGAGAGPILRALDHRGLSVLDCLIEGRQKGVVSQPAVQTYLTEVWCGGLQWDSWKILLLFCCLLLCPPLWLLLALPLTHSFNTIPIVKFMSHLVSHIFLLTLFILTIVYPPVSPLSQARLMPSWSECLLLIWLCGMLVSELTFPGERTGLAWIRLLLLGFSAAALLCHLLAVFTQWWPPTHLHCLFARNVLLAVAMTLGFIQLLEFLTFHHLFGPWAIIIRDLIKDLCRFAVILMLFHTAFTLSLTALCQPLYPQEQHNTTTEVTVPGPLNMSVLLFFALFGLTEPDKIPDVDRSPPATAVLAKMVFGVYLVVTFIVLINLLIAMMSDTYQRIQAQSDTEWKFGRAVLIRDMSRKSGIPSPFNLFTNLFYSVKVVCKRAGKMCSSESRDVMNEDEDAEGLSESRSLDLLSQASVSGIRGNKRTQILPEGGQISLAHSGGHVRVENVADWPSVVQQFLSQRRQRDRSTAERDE

Which results are given for `COC(=O)c1cccc(NC(=O)Nc2ccc(Cl)c(Cl)c2)c1`?
EC50 [1]: > 29.9 µM (inactive); EC50 [2]: 2.15 µM (active); EC50 [3]: > 29.9 µM (not active); EC50 [4]: > 60 µM (inconclusive); AC50 [5]: 2.77 µM (active); AC50 [6]: 6.38 µM (active); AC50 [7]: 22.4 µM (inconclusive); AC50 [8]: 22.4 µM (inconclusive)

Which results are given for `Cc1cc(C=NNC(=O)Cn2c3ccccc3c(=O)c3ccccc32)c(C)n1-c1ccc(Cl)cc1`?
IC50 [9]: 3.58 µM (active); IC50 [10]: 13.6 µM (active)

Which IC50 [11] does the source give for `COc1cccc(S(=O)(=O)Nc2ccc(C(O)(C(F)(F)F)C(F)(F)F)cc2)c1` here?
Its IC50 is 7.23 µM (active).

What about the IC50 [12] of the same compound?
Its IC50 is 2.31 µM (active).

Which IC50 [13] does the source give for `Nc1ccccc1/N=c1\ssnc1Cl` here?
Its IC50 is 9.43 µM (active).

And the IC50 [14]?
The IC50 was > 100 µM (inactive).

Which results are given for `COCCNC(=O)c1c(NC(=O)c2ccc(Br)o2)n(Cc2ccccc2)c2nc3ccccc3nc12`?
IC50 [15]: 2.14 µM (active); EC50 [16]: 1.9 µM (active); IC50 [17]: > 100 µM (inactive); EC50 [18]: 4.36 µM (active)

Which results are given for `O=C(CN1C(=O)/C(=C/c2ccco2)SC1=S)NC1CCS(=O)(=O)C1` (stereo not drawn)?
IC50 [19]: 85 µM (active); EC50 [20]: > 100 µM (inactive); EC50 [21]: 2.03 µM (active); EC50 [22]: > 100 µM (inactive); CC50 [23]: > 40 µM (active)
